Test results as given in patent publication US9169509B2, “Topoisomerase 2b as a predictor of susceptibility to anthracycline-induced cardiotoxicity” (Board of Regents, The University of Texas System, priority 2013, dated 2015).
Peptide text beside a SMILES is read from it. * marks the point of attachment. Cbz = O=C(OCc1ccccc1)*

Experiments:
Top2b [1] = molecular target: T1, Top2b (Homo sapiens, UniProt Q02880); test: Immunoblot of Top2b in U2OS cells treated with Dex and/or MG132; type: cell-based
T1 construct: endogenous in cells; host or cells: U2OS
Method: (§1) FIG. 10. […] U2OS cells were treated with 100 mM Dex and/or 10 mM MG132, a proteosome inhibitor, for 2, 4, or 6 hours. Cell lysates were immunoblotted with anti-Top2a, Top2b, or actin antibodies.
(§2) The effect of Dex treatment of Top2a levels was also tested. Briefly, U2OS cells were treated with 100 mM Dex and/or 10 mM MG132 (a proteosome inhibitor) for 2, 4, or 6 hours. Cell lysates were immunoblotted with anti-Top2a, Top2b, or actin antibodies.

mouse heart = test: Cardiac MRI for measuring cardiac function after chronic doxorubicin
Method: Before Cre induction, cardiac MRI scan was performed on each mouse to examine the baseline ejection fraction. Cardiomyocyte-specific Cre induction was carried out by treating mice with tamoxifen. […] Doxorubicin treatment (5 mg/kg, i.p., once a week for 5 weeks) was started 7 days after the second MRI scan. Two weeks after the last dose of doxorubicin, a third MRI scan was performed (FIG. 6a).
Every mouse in the EF experiments received 3 MRI scans, i.e., a baseline scan, a second scan 2 weeks after the end of tamoxifen treatment, and a third scan 2 weeks after the last dose of doxorubicin. […] Mice were anesthetized with isoflurane (2.5% in 97.5% O2), and scanned on a 7.0 T Biospec small animal scanner (Bruker Biospin Inc., Billerica, Mass.). Imaging gradients with 60 mm inner diameter (ID) were used with a 35 mm ID linear birdcage-style volume resonator. T1-weighted anatomic reference images were acquired using a three dimension (3D) fast low-angle shot (FLASH) gradient echo sequence. A retrospectively gated FLASH pulse sequence was used to acquire cardiac cine images with excellent contrast between bright blood and adjacent myocardium. To measure volumetric left ventricular ejection fraction (LVEF), at least 6 short axis images were scanned at 1 mm interval from the apex to the base of the heart. End-diastolic (ED) and end-systolic (ES) left ventricular volumes were obtained by the biplane area length method, and LVEF was calculated with the equation: [(ED-ES)/ED]/100.
Two weeks after completion of tamoxifen treatment mice were treated with doxorubicin or drug vehicle. Two cohorts of mice were treated with different schedules. […] To evaluate the chronic effect of doxorubicin on cardiac function, doxorubicin (5 mg/kg, i.p.) was administered once a week for 5 weeks, and cardiac function was examined 2 weeks after the last dose of doxorubicin by using MRI.
The effect of chronic doxorubicin treatment (5 mg/kg, ip, once a week for 5 weeks) was evaluated for its effect on ejection fraction.

[2] = tested on: DNA double strand breaks in the heart; test: Detection of DNA double strand breaks (γ-H2AX staining) in heart sections; type: in vivo, mouse; details: dexrazoxane 100 mg/kg ip 8 hrs prior to doxorubicin 25 mg/kg; hearts 16 hr after doxorubicin
Method: After mice were sacrificed, hearts were perfused with ice-cold PBS, quickly removed, embedded in OCT compound (Fisher Scientific), and snap-frozen in liquid nitrogen. The heart was sectioned to 5 μm-thick slices using a cryostat. Heart sections were stored at −80° C. until immunofluorescence staining was performed. Heart sections were rinsed with PBS at room temperature, fixed in BD Cytofix/Cytoperm solution (BD Biosciences) for 15 m, washed in PBS, and permeabilized in BD Perm/Wash solution for 30 m. Heart sections were first blocked with BSA (2 mg/ml) for 30 m, then incubated with an mouse monoclonal anti-γ-H2AX antibody conjugated with Alexa Fluor 555 (Clone N1-431, BD Biosciences) for 1 h. Nuclei were stained with DAPI (Sigma, 1 μg/ml PBS), and the slides were sealed for examination with an Olympus epifluorescence microscope (Model BX51). To quantify DSBs, the numbers of γ-H2AX-positive nuclei and the total nuclei were counted in 5 microscopic fields (400×) per section. For each mouse, five heart sections were counted to determine the percentage of γ-H2AX-positive nuclei.
To further confirm the cardio-protective effect of Dex, DNA double strand breaks were assessed in heart tissues. Dexrazoxane (100 mg/kg) was injected (ip) 8 hrs prior to doxorubicin (25 mg/kg) treatment. Hearts were harvested 16 hr after doxorubicin treatment. The percentage of γH2AX-positive nuclei was counted in 5 fields (400×) in each heart section. Five sections were counted in each heart to determine the average percentage of γH2AX-positive nuclei.

heart sections = test: Detection of apoptosis in heart sections (TUNEL assay); type: in vivo, mouse; details: dexrazoxane 100 mg/kg ip 8 hrs prior to doxorubicin 25 mg/kg ip; hearts 16 hrs after doxorubicin
Method: Apoptosis was detected by using TUNEL assay on heart sections. Heart harvest, sectioning, and storage were described above. Heart sections were warmed to room temperature before the apoptotic nuclei were stained by using a commercially available kit (In Situ Cell Death Detection Kit, Cat. No. 12156792910, Roche Applied Science). The entire staining procedures were performed according to the manufacturer's instructions. The nuclei were stained with DAPI (Sigma) before the slides were sealed and examined with an Olympus epifluorescence microscope (Model BX51). The apoptotic nuclei and the total nuclei per heart section were counted at 200× magnification. The apoptotic nuclei in 5 heart sections of each mouse were counted and averaged.
The cardio-protective effect of Dex against doxirubin-induced apoptosis was assessed in heart tissues. Dexrazoxane (100 mg/kg) was injected (ip) 8 hrs prior to doxorubicin (25 mg/kg) injection (ip). One group received only doxorubicin and a second group received only dexrazoxane. Hearts were harvested 16 hrs after doxorubicin treatment. The numbers of TUNEL-positive nuclei were counted in five fields in each heart section.

Top2b [3] = molecular target: T2, Top2b (Mus musculus, UniProt Q64511); test: Western blot of Top2b protein levels in heart tissue after dexrazoxane; type: in vivo; details: dexrazoxane 100 mg/kg i.p.
T2 construct: Frozen tissues were homogenized in lysis buffer and sonicated to extract proteins for western blotting; from tissue; host or cells: mouse heart
Method: Expression of Top2b was examined in the hearts of mice. After sacrifice, the heart was quickly removed and homogenized immediately in lysis buffer. After homogenization, the lysate was sonicated at 4° C. and an aliquot was removed for protein concentration measurement. The lysate was stored at −80° C. for western blot analysis. 20 μg of lysate proteins were electrophoresed and transferred to PVDF membranes. Blots were blocked with 5% non-fat dry milk, and incubated overnight at 4° C. with anti-Top2b antibody (Abcam). To detect mitochondrial proteins, the mitochondria were isolated from cardiomyocytes. The cardiomyocytes were isolated with a Langendorff perfusion system according to a published protocol3. Briefly, heart was removed and rinsed with ice-cold PBS twice before connecting to a Langendorff apparatus through the aorta. The heart was perfused first with perfusion buffer for 3 m at 37° C. (3 ml/min), then digestion buffer (enzyme-containing) buffer at 37° C. for 8-10 m. The heart was disintegrated manually and the tissue/cells were separated by using forceps. The tissue/cell suspension was incubated for another 3-5 m in digestion buffer, then triturate the cells gently using a 1 ml pipette before adding stopping buffer. After purification by centrifugation the mitochondria were isolated from the cardiomyocytes with a kit (Cat. No. MS853, Mitosciences) for separating mitochondria from nuclei and cytosol. The isolated mitochondria were homogenized in lysis buffer and sonicated before being stored at −80° C. until use. 20 μg of lysate proteins were electrophoresed and transferred to PVDF membranes. Blots were blocked incubated overnight at 4° C. with anti-Ndufa3 (Sigma), anti-Atp5a (Abcam) or anti-Sdha antibodies (Abcam). After incubation with HRP-conjugated secondary antibodies for 40 m at room temperature, the blots were detected with a luminol-based detection kit (ECL, GE Health Care).
To test the effect of dexrazoxane (Dex) on Top2b protein levels, mice were treated with dexrazoxane (100 mg/kg, i.p.). At different time points following treatment hearts were removed under anesthesia and perfused with PBS to remove blood. Each heart was cut into 10 pieces and snap-frozen in liquid nitrogen. Frozen tissues were homogenized in lysis buffer and sonicated to extract proteins for western blotting.

Top2a = molecular target: T3, Top2a (Homo sapiens, UniProt P11388); test: Immunoblot of Top2a in U2OS cells treated with Dex and/or MG132; type: cell-based; details: 100 mM Dex for 2, 4, or 6 hours
T3 construct: endogenous in cells; host or cells: U2OS
Method: as §1, §2

T2 sequence (Q64511 2-1612 limits assumed): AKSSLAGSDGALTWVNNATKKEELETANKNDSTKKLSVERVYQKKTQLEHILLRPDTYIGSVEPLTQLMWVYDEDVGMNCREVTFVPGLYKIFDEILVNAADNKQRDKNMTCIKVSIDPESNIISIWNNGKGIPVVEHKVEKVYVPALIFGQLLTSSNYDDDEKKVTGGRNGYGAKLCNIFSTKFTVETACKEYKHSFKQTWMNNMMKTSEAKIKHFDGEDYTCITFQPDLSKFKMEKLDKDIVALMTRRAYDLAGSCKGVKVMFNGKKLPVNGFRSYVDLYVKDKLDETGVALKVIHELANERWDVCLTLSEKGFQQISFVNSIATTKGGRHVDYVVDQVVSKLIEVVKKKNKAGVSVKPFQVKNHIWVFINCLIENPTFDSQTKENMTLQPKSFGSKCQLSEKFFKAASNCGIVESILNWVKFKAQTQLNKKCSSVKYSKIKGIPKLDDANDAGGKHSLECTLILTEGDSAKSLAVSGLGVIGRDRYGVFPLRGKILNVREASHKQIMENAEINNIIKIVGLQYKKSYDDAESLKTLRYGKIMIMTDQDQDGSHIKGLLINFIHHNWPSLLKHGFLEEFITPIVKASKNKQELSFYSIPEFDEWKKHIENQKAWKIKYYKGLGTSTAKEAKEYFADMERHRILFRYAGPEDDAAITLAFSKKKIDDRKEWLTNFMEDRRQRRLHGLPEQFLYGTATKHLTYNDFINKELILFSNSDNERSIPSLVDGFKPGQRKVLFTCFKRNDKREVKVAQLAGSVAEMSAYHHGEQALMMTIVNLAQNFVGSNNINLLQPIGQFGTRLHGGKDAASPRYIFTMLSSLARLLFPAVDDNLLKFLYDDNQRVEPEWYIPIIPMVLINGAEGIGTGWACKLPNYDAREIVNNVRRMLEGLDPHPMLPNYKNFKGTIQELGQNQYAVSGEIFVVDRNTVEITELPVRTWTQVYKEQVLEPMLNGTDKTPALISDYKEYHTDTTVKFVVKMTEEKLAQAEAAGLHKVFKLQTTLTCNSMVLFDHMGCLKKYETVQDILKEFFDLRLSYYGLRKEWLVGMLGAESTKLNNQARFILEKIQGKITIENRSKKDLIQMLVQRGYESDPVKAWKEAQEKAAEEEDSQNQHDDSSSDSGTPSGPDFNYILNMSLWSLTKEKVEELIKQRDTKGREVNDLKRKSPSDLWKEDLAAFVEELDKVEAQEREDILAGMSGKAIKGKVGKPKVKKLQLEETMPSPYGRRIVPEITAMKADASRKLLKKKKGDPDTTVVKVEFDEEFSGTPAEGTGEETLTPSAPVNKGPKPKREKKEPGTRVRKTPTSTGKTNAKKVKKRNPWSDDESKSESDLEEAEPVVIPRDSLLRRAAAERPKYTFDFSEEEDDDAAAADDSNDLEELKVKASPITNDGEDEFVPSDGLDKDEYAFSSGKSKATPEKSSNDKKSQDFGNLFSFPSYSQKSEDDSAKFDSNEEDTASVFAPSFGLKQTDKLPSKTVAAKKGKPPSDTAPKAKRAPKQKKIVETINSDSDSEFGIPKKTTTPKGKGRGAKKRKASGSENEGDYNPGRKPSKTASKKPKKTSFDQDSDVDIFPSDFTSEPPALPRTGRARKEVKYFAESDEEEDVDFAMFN
T1 sequence (Q02880 2-1626 limits assumed): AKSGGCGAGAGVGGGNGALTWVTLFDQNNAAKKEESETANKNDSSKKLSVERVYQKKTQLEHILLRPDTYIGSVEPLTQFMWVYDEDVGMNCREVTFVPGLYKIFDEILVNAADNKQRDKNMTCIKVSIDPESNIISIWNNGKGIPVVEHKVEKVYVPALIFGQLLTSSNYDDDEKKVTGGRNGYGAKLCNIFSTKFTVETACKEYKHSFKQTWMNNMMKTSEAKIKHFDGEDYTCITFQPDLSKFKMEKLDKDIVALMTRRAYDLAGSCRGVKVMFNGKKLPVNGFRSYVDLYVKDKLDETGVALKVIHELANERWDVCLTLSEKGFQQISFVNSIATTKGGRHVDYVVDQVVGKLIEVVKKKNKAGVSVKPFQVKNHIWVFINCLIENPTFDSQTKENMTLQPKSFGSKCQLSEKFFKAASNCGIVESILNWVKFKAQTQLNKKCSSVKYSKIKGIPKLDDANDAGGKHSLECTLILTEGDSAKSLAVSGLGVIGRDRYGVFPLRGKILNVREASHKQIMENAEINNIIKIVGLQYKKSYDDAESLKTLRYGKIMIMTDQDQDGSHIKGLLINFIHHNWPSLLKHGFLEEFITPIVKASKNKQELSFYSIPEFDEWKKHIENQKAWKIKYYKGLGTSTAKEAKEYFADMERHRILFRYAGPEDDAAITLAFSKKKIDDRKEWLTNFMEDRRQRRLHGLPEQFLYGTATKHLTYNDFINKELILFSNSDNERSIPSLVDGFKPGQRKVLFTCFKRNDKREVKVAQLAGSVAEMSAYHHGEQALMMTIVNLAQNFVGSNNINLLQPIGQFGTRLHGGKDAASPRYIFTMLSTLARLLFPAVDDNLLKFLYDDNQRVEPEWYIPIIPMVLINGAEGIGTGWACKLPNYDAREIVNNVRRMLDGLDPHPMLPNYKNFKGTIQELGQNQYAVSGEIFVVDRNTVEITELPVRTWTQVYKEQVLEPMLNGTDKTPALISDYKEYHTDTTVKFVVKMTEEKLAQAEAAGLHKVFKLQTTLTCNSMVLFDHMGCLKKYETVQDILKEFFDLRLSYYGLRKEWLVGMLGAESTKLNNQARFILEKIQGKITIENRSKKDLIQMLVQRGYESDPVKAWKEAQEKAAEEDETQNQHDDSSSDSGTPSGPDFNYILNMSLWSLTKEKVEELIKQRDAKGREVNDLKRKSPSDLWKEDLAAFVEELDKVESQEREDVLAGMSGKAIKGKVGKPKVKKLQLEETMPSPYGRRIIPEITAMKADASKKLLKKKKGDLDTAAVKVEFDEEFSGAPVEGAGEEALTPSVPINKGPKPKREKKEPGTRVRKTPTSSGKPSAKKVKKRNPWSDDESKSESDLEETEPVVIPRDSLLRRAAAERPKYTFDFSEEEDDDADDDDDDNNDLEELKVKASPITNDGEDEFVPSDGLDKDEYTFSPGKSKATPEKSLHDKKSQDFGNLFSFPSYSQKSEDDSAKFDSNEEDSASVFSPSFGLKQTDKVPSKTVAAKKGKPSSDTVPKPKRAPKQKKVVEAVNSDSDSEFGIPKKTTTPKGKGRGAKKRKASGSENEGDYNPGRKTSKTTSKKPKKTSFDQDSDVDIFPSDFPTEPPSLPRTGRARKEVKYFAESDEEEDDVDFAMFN
T3 sequence (P11388 whole entry): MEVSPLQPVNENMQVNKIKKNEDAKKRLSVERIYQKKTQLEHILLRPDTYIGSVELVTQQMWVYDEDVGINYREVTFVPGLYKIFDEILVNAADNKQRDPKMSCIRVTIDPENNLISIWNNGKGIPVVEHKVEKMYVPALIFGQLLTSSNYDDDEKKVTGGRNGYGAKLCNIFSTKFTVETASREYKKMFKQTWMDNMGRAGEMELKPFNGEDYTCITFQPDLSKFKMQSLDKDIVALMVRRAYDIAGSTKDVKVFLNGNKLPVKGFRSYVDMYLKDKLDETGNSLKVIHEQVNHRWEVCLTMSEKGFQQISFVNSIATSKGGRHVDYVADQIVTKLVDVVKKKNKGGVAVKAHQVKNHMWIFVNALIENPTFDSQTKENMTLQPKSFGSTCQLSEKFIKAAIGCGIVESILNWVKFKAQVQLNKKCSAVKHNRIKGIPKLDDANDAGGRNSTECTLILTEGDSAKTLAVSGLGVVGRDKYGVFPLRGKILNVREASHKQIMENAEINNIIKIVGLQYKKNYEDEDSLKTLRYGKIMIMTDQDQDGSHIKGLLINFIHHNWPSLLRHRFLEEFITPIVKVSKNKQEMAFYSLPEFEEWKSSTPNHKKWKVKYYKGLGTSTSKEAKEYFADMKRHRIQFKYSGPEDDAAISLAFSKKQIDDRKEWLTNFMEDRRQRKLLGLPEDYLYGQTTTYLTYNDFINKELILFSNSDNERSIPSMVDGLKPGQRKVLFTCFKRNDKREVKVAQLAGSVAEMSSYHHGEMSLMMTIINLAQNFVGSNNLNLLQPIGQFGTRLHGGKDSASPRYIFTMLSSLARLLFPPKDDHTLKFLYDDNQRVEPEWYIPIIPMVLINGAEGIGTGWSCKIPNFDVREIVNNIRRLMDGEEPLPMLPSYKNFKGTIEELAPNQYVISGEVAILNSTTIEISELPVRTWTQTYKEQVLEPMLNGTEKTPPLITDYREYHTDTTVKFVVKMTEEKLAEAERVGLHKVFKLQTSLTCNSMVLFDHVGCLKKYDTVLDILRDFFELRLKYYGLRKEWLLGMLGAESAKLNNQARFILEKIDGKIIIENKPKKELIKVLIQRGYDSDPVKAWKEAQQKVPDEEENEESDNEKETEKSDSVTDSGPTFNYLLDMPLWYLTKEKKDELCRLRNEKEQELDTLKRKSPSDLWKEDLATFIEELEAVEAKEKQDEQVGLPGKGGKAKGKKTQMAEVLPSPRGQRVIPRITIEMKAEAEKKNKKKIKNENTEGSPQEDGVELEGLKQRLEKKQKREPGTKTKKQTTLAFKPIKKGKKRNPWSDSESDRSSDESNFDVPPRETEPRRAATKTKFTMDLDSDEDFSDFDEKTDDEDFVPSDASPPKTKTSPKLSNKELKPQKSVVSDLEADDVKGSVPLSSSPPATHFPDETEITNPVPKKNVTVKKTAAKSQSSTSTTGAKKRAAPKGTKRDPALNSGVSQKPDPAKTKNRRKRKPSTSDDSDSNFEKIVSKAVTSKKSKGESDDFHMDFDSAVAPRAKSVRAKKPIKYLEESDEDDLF

Compound: CC(C)C[C@@H](C=O)NC(=O)[C@H](CC(C)C)NC(=O)[C@H](CC(C)C)NC(=O)OCc1ccccc1 [MG132] (Cbz-Leu-Leu-Leu-aldehyde)
- Effect on Dex-mediated Top2b degradation (Top2b [1]; 10 mM MG132 with 100 mM Dex, 2, 4, or 6 hours): inhibited

Compound: CC/C(=C(\c1ccccc1)c1ccc(OCCN(C)C)cc1)c1ccccc1 [Tamoxifen, tamoxifen]
- Effect on ejection fractions (mouse heart; tamoxifen 25 mg/kg gavage once a day for 5 days, all three Top2b genotype groups): did not significantly affect

Compound: C[C@@H](CN1CC(=O)NC(=O)C1)N1CC(=O)NC(=O)C1 [dexrazoxane]
- Protection against doxorubicin-induced DNA double strand breaks in the heart (γH2AX-positive nuclei) [2]: protects against doxorubicin-induced DNA double strand breaks
- Protection against doxorubicin-induced apoptosis in the heart (TUNEL-positive nuclei) (heart sections): protects against doxorubicin-induced apoptosis
- Time point at which Top2b levels begin to recover (Top2b [3]): 12 h
- Top2b protein level in the heart at 6 hours (Top2b [3]; 6 hours after therapy): nearly undetectable
- Top2b protein level in the heart at 24 hours (Top2b [3]; 24 hours): still noticeably reduced
- Top2b protein levels in the heart (Top2b [3]; time course): greatly reduced
- Degradation of Top2b (Top2b [1]; 100 mM Dex for 2, 4, or 6 hours): caused degradation of Top2b
- Degradation of Top2a (Top2a): but not Top2a
- Ejection fraction, Dex in combination with doxorubicin (mouse heart; dexrazoxane 100 mg/kg ip 8 hrs prior to doxorubicin 5 mg/kg ip once a week for 5 weeks): unchanged
- Ejection fraction, Dex alone (mouse heart; mice, dexrazoxane 100 mg/kg ip alone): unchanged
